# Key:
# p38 MAPK = p38 MAPK phosphorylation, western blot in IgE-antigen stimulated RBL-2H3 cells; type: cell-based; details: PLAG pre-incubated RBL-2H3 cells, IgE-antigen complex stimulation
# Description: Dephosphorylation of p38 MAPK and ERK1/2 in PLAG-treated RBL-2H3 cells is determined by western blot analysis using anti-phospho-p38 and anti-phospho-ERK1/2 respectively. To activate the p38 and ERK1/2 in RBL-2H3 cells, the cells are sensitized with 50 ng/mL of anti-DNP-IgE overnight. After washing with PBS three times, 20 ng/ml of DNP-HSA is added. Each cell lysate for western blot is prepared in the PLAG-treated RBL-2H3 cells in a dose-dependent manner and incubated for the same time (15 min). β-actin is used as internal controls. ERK1/2 and p38 phosphorylation start immediately after IgE-antigen complex stimulation and remain sufficiently activated for 5 min.
# STAT1 = STAT1 transcriptional activity reporter assay in HepG2 cells; type: cell-based, human; details: HepG2, 10 ng IFN-γ, PLAG 0.01-10 μg/ml, 12 hours
# Description: By using STAT6 inhibitor (S6I), it is confirmed that the reduction of Complement 3 in HepG2 cells (human hepatocyte cell line) is regulated by STAT6. […] It is also confirmed that PLAG has selective efficacy on STAT6 over STAT1. FIG. 1 presents graphs showing STAT1 and STAT6 transcriptional activity in the PLAG treated HepG2 cells. NC refers to the unstimulated control cell. For the STAT1 assay, gene transfected HepG2 (human hepatocyte cell line) is treated with 10 ng of IFN-γ and serially diluted PLAG is added (0.01 μg/ml, 0.1 μg/ml, 1 μg/ml, and 10 μg/ml as shown) to see its effect on gene expression in the stimulated cell. For the STAT6 assay, gene transfected HepG2 cells are treated with 10 ng of IL-4 and again serially diluted PLAG is added (0.01 μg/ml, 0.1 μg/ml, 1 μg/ml, and 10 μg/ml as shown) to see its effect on gene expression in the stimulated cell. The assay is carried out following 12 hours incubation of treated cells.
# C3 [1] = assay: C3 protein by ELISA in HMC-1 cells; type: cell-based, human; details: HMC-1, PLAG 1, 10 and 100 μg/mL for 2 hours, 72 hours activation with 10% FBS
# Description: In a separate experiment, human mast cells (HMC-1, 1×10^5 cell/ml) are treated with PLAG of various concentrations (1, 10 and 100 μg/mL) for 2 hours. The cells are activated for 72 hours with 10% FBS (Fetal bovine serum) containing IMDM. The decrease of C3 is confirmed by ELISA analysis of the expressed protein.
# C3 [2] = assay: C3 in culture supernatant of HepG2 cells by ELISA; type: cell-based, human; details: HepG2, PLAG 1 to 100 μg/ml, IL-4 and TNF-α, 18 hr
# Description: (§1) The incubated HepG2 cell lines are treated with PLAG (1˜100 μg/ml), followed by IL-4 and TNF-α, reacted for 1 hour, incubated for 18 hours at 37° C. and the supernatant isolated. Quantitation of the amount of C3 in the cellular culture medium (supernatant) from HepG2 cells is performed by ELISA using a commercially available monoclonal antibody (mAb, R&D Systems) and the manufacture's protocol; the results are presented in FIG. 3. C3 is expressed spontaneously under in vitro culture condition using 10% FCS added to HepG2 cells incubated for 12 hr. The cells are treated with different doses of PLAG from 1 to 100 μg/ml (Panel A, Panel B) or 10 and 100 μg/ml of S6I (Panel C), reacted with IL-4 and TNF-α for 1 hr and then incubated for 18 hr at 37° C. Cellular viability is confirmed using the WST-1 assay (Panel A).
# HepG2 cells = assay: WST-1 cell viability assay in HepG2 cells; type: cell-based; details: HepG2, PLAG 1 to 100 μg/ml
# Description: as §1
# monocytes = assay: Monocyte ratio in blood of LPS-treated C57BL/6 mice; type: in vivo; details: C57BL/6 mouse, LPS + PLAG, ratio to total leukocytes
# Description: To observe the ratio of neutrophil and lymphocyte in the blood of Balb/C mice, 1 mg/kg of lipopolysaccharide (LPS) is injected to mice, i.p. to induce inflammation. 5 mg/kg of PLAG is administered to the mice orally and blood samples are taken at 3 and 13 days after. In addition, for comparison, normal mice that are not treated with PLAG, receive PBS (phosphate buffered saline) and olive oil. The blood samples taken from the mice are treated with EDTA bottle 0.5 ml (Minocollect tube, Greiner bio-one, Austria) and the level of neutrophils (NEU) and lymphocytes (LYM) as a percentage of total leukocytes is measured using automated blood sample analyzer BC-6800 (Mindray, Shenzhen, China).
# Except for using C57BL/6 mouse instead of Balb/C mouse, mice are treated in the same manner as Example 6, the monocyte ratio (Mono) to total leukocytes is measured and the results are shown in Table 5.
# neutrophils = assay: Pilot study in pancreatic cancer patients receiving chemotherapy: neutrophils (ANC); type: in vivo, human; details: 16 patients, Gemcitabine and Erlotinib, PLAG 1,000 mg once per day orally, two cycles
# Description: PLAG is administered to sixteen pancreatic cancer patients after chemotherapy. The subjects of this study are unoperable pancreatic cancer patients with ECOG (Eastern Cooperative Oncology Group) performance status of “0” or “1”, i.e. patients in good physical condition without much pain, able to enjoy almost normal lifestyle and thus, eligible for anticancer treatment for at least 2 months. The pancreatic cancer patients are “locally advanced” patients having tumor metastasis to the major vessels around pancreas or “Distant metastasis” patients with distant metastasis to liver, lung, bone, etc. ECOG performance status “0” refers to a patient who is asymptomatic, fully active, able to carry on all predisease activities without restriction with no pain and no problem for normal lifestyle, while “1” refers to a patient who is symptomatic but completely ambulatory with mile pain and a little problem for normal life. Anticancer (Gemcitabine and Erlotinib combo treatment) Regimen is as follows: 1,000 mg of Gemcitabine is injected once a week for three weeks (Day 1, Day 8, Day 15), and is not injected in the next one week (Day 22). Therefore, 1 cycle of anticancer treatment requires 1 month. 100 mg of Erlotinib (Tarceva) is administered once per day everyday orally. 1,000 mg of PLAG is also administered once per day orally, starting from 3 days before anticancer treatment until the last chemotherapy treatment. The PLAG treatment group and control group both completed two cycles of anticancer treatment. There is no difference among the control and PALG treatment groups in the amount or schedule of anticancer treatment.
# [3] = stated as known; cited from earlier work
smiles,measurement,setting,value
"CCCCC/C=C\C/C=C\CCCCCCCC(=O)OC(COC(C)=O)COC(=O)CCCCCCCCCCCCCCC (racemic) [PLAG, 1-palmitoyl-2-linoleoyl-3-acetylglycerol]",p38 phosphorylation,p38 MAPK,down-regulated
same,STAT1 expression (transcriptional activity),STAT1,no effect
same,decrease of C3 (ELISA),C3 [1],proportional to the concentration of PLAG
same,expression of C3 in supernatant (ELISA),C3 [2],decreased dose-dependently
same,cellular viability (WST-1),HepG2 cells,does not affect the cellular propagation and death
same,Monocyte ratio,monocytes,18.4 ± 6.6%
same,"patients with neutrophil (ANC) decrease to less than 1,500/μl",neutrophils,37.5%
same,patients with neutrophil decrease to less than 500/μl,neutrophils,none
same,"patients with neutrophil decrease to less than 1,000/μl",neutrophils,18.8%
same,patients with neutrophil number decrease to less than 50%,neutrophils,37.5%
same,patients with neutrophil number decrease to less than 60%,neutrophils,18.8%
same,patients with neutrophil number decrease to less than 75%,neutrophils,none
same,toxicity in GLP toxicity test,[3],no toxicity
